Experimental data taken from ChEMBL document CHEMBL1152560, “Substituted 2-arylbenzothiazoles as kinase inhibitors: hit-to-lead optimization” (Bioorg Med Chem, 2009).

What was measured:
[1] = target: Death-associated protein kinase 2 (Homo sapiens) (UniProt Q9UIK4); test: Residual activity of DAPK2 at 0.1 uM by microplate scintillation counting
[2] = Residual activity of PKA at 1 uM by microplate scintillation counting
[3] = target: Dual specificity mitogen-activated protein kinase kinase 1 (Homo sapiens) (UniProt Q02750); test: Residual activity of wild type MEK1 at 0.1 uM by microplate scintillation counting
Sequence of Dual specificity mitogen-activated protein kinase kinase 1 (Homo sapiens) (Q02750 whole entry): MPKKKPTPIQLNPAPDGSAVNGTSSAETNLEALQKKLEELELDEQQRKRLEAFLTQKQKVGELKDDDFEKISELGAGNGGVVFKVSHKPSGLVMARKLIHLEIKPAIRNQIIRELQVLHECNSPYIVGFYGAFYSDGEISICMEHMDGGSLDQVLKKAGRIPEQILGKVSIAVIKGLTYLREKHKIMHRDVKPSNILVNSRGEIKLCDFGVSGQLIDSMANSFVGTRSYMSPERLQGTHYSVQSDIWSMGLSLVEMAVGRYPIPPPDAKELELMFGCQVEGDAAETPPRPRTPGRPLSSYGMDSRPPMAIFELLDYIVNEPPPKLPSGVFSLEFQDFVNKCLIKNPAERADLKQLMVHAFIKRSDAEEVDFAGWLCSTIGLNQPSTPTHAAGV

[4] = target: Misshapen-like kinase 1 (Homo sapiens) (UniProt Q8N4C8); test: Residual activity of MINK1 at 1 uM by microplate scintillation counting
[5] = target: Myosin light chain kinase 2, skeletal/cardiac muscle (Homo sapiens) (UniProt Q9H1R3); test: Residual activity of MYLK2 at 1 uM by microplate scintillation counting
Sequence of Myosin light chain kinase 2, skeletal/cardiac muscle (Homo sapiens) (Q9H1R3 whole entry): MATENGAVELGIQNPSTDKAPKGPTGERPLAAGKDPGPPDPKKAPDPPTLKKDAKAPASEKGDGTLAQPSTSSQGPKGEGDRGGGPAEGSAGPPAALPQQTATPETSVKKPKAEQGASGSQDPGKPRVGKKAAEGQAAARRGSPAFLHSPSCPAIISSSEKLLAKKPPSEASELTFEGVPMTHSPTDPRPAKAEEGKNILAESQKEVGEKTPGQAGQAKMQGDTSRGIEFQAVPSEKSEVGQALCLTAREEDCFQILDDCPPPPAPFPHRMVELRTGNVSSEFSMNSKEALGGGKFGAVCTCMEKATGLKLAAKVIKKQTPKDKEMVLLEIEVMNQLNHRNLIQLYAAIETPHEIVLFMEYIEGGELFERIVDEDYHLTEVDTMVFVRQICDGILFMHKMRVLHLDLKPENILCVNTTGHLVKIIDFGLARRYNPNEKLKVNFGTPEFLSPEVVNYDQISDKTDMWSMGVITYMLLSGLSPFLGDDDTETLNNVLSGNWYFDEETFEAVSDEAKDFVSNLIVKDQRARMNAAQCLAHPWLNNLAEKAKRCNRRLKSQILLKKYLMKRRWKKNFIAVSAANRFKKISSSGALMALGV

[6] = target: T1, Tyrosine-protein kinase receptor TYRO3 (Homo sapiens) (UniProt Q06418); test: Residual activity of TYRO3 at 1 uM by microplate scintillation counting
T1 sequence (whole entry): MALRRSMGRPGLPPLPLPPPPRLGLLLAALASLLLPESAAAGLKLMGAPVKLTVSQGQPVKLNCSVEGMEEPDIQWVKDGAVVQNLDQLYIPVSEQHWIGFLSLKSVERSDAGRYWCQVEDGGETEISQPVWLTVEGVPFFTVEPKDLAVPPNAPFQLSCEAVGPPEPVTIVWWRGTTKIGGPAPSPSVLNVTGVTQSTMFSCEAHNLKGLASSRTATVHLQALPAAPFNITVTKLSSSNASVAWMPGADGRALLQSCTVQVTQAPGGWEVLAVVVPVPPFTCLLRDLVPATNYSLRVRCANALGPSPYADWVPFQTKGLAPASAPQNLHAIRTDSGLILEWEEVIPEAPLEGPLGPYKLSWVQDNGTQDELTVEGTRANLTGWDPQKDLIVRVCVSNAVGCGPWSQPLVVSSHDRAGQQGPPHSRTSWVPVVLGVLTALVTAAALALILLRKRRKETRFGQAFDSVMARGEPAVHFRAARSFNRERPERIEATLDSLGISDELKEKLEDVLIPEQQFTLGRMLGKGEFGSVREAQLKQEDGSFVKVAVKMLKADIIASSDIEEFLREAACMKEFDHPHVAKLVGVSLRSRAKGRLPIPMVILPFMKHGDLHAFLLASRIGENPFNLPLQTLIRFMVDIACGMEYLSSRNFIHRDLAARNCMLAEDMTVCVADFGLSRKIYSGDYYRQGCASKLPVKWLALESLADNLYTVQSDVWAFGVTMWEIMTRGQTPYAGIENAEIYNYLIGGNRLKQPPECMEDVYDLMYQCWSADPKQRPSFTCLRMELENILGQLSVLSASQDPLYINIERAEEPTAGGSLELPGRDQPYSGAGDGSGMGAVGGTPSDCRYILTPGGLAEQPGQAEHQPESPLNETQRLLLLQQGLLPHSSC

[7] = target: T2, Serine/threonine-protein kinase VRK1 (Homo sapiens) (UniProt Q99986); test: Residual activity of VRK1 at 1 uM by microplate scintillation counting
T2 sequence (whole entry): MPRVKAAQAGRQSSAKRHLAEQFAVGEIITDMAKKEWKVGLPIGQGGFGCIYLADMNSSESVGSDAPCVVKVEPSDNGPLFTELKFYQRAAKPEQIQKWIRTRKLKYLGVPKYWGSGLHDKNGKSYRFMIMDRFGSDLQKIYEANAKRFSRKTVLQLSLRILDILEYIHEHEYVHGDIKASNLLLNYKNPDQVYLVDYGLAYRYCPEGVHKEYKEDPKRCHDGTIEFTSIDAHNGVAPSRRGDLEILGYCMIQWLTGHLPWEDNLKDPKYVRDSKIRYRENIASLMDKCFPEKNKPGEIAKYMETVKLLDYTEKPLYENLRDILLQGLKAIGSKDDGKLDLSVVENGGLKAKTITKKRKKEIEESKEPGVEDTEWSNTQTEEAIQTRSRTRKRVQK

[8] = target: Tyrosine-protein kinase receptor UFO (Homo sapiens) (UniProt P30530); test: Residual activity of AXL at 0.1 uM by microplate scintillation counting
Sequence of Tyrosine-protein kinase receptor UFO (Homo sapiens) (P30530 whole entry): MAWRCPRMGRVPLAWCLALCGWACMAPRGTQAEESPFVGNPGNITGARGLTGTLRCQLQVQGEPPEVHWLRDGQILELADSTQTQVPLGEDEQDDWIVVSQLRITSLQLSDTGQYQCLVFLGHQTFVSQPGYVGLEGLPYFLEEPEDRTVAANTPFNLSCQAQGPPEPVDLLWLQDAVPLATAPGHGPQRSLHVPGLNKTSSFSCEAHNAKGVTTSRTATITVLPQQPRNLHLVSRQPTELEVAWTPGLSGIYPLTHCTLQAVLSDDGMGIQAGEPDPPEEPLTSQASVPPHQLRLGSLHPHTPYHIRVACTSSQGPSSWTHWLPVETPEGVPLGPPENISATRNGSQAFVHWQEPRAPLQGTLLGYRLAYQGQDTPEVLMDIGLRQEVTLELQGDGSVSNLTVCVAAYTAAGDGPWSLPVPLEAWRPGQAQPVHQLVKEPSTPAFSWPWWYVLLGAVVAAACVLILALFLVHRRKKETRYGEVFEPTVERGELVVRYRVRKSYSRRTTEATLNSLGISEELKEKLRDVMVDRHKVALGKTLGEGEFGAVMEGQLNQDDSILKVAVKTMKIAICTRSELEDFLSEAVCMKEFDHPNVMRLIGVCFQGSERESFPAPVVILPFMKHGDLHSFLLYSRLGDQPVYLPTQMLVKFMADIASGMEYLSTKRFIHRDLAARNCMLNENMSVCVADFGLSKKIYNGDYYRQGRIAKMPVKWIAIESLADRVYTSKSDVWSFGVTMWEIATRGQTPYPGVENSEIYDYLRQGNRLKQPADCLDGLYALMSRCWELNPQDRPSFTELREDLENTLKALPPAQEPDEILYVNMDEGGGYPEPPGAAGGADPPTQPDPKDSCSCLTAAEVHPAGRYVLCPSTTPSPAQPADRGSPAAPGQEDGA

[9] = target: Cyclin-dependent kinase 5/CDK5 activator 1 (Homo sapiens) (UniProt Q00535+Q15078); test: Residual activity of CDK5/p35NCK at 0.1 uM by microplate scintillation counting; type: protein-complex assay
Sequence of Cyclin-dependent kinase 5/CDK5 activator 1 (Homo sapiens) (Q00535 whole entry): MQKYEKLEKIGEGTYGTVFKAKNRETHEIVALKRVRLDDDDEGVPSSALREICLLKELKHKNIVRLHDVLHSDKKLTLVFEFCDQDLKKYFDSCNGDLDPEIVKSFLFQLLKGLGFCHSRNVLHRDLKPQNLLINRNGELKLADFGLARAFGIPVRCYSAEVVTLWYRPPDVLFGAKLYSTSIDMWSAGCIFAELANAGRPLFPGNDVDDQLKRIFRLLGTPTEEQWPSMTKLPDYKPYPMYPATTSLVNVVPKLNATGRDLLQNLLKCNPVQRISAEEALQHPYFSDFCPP
Sequence of Cyclin-dependent kinase 5/CDK5 activator 1 (Homo sapiens) (Q15078 99-307 partner limits assumed): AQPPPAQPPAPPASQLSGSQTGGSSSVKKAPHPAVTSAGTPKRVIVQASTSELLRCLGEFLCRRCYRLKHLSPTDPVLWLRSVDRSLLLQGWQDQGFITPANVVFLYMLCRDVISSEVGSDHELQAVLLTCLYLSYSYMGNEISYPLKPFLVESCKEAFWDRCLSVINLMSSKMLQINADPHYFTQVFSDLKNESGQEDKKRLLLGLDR

[10] = target: Serine/threonine-protein kinase Nek7 (Homo sapiens) (UniProt Q8TDX7); test: Residual activity of NEK7 at 0.1 uM by microplate scintillation counting
Sequence of Serine/threonine-protein kinase Nek7 (Homo sapiens) (Q8TDX7 whole entry, looked up): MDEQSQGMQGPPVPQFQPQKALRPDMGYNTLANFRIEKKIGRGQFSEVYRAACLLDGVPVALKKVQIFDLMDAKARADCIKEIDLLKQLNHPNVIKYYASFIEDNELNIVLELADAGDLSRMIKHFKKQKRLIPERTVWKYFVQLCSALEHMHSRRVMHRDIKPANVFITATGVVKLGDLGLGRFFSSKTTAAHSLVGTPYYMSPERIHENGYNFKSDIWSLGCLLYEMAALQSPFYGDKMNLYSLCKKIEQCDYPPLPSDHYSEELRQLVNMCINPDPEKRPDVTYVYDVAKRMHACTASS

[11] = target: Serine/threonine-protein kinase pim-2 (Homo sapiens) (UniProt Q9P1W9); test: Residual activity of PIM2 at 0.1 uM by microplate scintillation counting
Sequence of Serine/threonine-protein kinase pim-2 (Homo sapiens) (Q9P1W9 whole entry, looked up): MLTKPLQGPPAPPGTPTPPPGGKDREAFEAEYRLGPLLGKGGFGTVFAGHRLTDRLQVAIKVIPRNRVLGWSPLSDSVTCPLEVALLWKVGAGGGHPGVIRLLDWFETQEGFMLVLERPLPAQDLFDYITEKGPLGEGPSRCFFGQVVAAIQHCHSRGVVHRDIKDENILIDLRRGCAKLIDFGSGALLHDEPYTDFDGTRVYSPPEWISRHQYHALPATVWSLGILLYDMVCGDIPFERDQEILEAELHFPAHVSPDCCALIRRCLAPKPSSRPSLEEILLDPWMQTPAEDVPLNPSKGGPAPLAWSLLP

[12] = target: Ribosomal protein S6 kinase alpha-2 (Homo sapiens) (UniProt Q15349); test: Residual activity of RPS6KA2 at 10 uM by microplate scintillation counting
Sequence of Ribosomal protein S6 kinase alpha-2 (Homo sapiens) (Q15349 whole entry): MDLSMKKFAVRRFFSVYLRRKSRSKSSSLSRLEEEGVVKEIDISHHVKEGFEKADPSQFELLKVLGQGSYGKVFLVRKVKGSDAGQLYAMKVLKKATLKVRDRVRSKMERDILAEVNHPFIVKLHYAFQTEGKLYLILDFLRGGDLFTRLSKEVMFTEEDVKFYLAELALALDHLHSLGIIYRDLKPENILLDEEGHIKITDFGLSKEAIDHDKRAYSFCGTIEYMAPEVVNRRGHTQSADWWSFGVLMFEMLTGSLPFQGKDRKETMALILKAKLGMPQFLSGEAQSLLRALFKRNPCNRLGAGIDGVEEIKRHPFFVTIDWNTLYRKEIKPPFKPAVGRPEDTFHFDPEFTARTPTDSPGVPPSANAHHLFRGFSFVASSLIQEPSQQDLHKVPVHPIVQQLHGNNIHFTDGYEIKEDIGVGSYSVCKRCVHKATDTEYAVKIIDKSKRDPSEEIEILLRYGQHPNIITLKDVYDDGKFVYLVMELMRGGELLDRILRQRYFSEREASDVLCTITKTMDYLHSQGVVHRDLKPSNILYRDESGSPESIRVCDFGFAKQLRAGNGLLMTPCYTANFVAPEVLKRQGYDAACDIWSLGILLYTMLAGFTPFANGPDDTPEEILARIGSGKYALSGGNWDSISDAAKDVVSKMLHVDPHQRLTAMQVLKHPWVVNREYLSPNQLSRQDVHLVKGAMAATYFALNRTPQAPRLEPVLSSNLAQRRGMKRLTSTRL

[13] = target: T3, Testis-specific serine/threonine-protein kinase 2 (Homo sapiens) (UniProt Q96PF2); test: Residual activity of TSK2 at 0.1 uM by microplate scintillation counting
T3 sequence (whole entry): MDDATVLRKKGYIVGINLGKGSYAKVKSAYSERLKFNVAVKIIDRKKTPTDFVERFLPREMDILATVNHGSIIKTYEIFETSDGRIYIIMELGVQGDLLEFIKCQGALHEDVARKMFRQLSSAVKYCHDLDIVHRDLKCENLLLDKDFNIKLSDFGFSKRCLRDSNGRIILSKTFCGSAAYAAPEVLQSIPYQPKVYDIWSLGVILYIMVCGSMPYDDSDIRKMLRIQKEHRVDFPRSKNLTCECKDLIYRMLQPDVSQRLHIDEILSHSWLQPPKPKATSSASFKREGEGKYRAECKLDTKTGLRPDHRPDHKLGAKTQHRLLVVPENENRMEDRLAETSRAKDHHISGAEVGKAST

Sequence of Death-associated protein kinase 2 (Homo sapiens) (Q9UIK4 whole entry, looked up): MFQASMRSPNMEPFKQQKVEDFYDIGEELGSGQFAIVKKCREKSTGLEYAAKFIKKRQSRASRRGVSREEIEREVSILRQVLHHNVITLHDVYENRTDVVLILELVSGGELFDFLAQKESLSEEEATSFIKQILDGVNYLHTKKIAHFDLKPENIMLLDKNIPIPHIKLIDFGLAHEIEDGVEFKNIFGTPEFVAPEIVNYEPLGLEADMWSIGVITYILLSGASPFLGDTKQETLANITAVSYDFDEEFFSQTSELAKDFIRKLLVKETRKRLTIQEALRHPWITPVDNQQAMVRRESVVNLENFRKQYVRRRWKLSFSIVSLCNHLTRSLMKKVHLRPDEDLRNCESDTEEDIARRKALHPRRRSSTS

residual activity [2] [%] | residual activity [3] [%] | residual activity [4] [%] | residual activity [5] [%] | residual activity [6] [%] | residual activity [7] [%] | residual activity [8] [%] | residual activity [9] [%] | residual activity [10] [%] | residual activity [11] [%] | residual activity [12] [%] | residual activity [13] [%] | SMILES | residual activity [1] [%]
96 | 101 | 86 | 140 | 103 | 95 | 96 | 94 | 95 | 104 | 81 | 101 | COc1cc2c(Oc3ccc(-c4nc5ccccc5s4)cc3)ncnc2cc1OCCCN1CCCC1 | 96
106 | 87 | 85 | 81 | 100 | 103 | 117 | 93 | 83 | 64 | 44 | 97 | COc1cc2c(Oc3ccc(-c4nc5ccccc5s4)cc3)ncnc2cc1OCCCN1CCN(C)CC1 | 81
103 | 79 | 73 | 99 | 103 | 98 | 104 | 83 | 97 | 94 | 39 | 96 | COc1cc2c(Oc3ccc(-c4nc5ccccc5s4)cc3F)ncnc2cc1OCCCN1CCN(C)CC1 | 85
